# Results reported in patent US8383168B2, “Antioxidant complex, cosmetic and pharmaceutical compositions containing said complex and use of said complex” (Natura Cosmeticos S.A., priority 2008, dated 2013).
# Assays:
# Format in all cases: biochemical
# [1] = ORAC hydrophilic and lipophylic method; conditions: value printed for comparison with the samples
# Experimental: The system comprises a generating substance of free radical, the AAPH (2,2′-azobis (2-amidinopropane)dihydrochloride) and a fluorescent marker, fluorescein. The antioxidant substance presence in the reaction medium inhibits the decline of the induced fluorescence by the free radical.
# The final value is calculated by the regression equation between the sample concentration and the area under the decline curve of fluorescence (AUC). Being expressed the result in micromoles equivalent of Trolox®/g of the sample. AUC=1+f1/f0+f2/f0++f3/f0+ . . . +fn/f0 • f0: initial fluorescence t=0 minutes • fn: fluorescence in each sample in t=n minutes
# Hexane (1 mg/mL) was added in the individual samples, the samples were agitated during 3 minutes in vortex and centrifuged during two minutes in 700 g. The supernatant was removed, evaporated under nitrogen flow and analyzed as lipophylic portion. The soil body was analyzed as hydrophilic fraction.
# The latter was solubilized in acetone:water (50% v/v), mixed in the ratio indicated for each one of the mixtures and appropriately diluted in 75 nM phosphate buffer pH 7.0. […] The reading was made each minute for one hour with wave length of excitement 485/20 nm and emission 528/20 nm (reading of plates—Multi Detection microplate reader SynergyBIOTEK). […]
# [2] = DPPH free radical neutralization; conditions: amount required to neutralize 50% of DPPH radicals
# Source text: This methodology is used to assess the IC-50 value, i.e., the amount of active ingredient required to neutralize 50% of the radicals formed in the reaction medium.
# This assay is used to assess the active ingredient's ability to decrease the formation of free radicals. A specific radical (DPPH) produces a purple coloring in ethanolic solution. Antioxidant active ingredients capable of donating protons (H^+) decrease the formation of radicals, consequently decreasing the purple coloring.
# [3] = Lipoperoxidation (liposomes + AAPH, xylenol orange); conditions: for protection against lipoperoxidation: active ingredient alone, 100 μg/ml (0.01%), 3 hours of reaction
# Source text: The methodologies selected for planning and carrying out the tests for the antioxidant efficacy of the complex of the present invention aimed at reproducing the protective effect of membranes (lipids), DNA and proteins, and were fast screening methodologies, such as: • DPPH: the test is based on the reduction reaction of the diphenyl picryl hydrazyl (DPPH) free radical in ethanolic medium, with the raw materials or substances to be analyzed, wherein the DPPH radical is reduced by said substances, altering the tone and enabling the antioxidant protection to be measured. This is a simple assay, commonly used for screening substances, since it measures one of the main mechanisms of antioxidant action—proton donation for stabilization of the DPPH radical. • Lipoperoxidation: in this test, phosphatidylcholine liposomes, which structure resembles the cell membrane since phosphatidylcholine is one of the lipid components of cell membranes, are incubated with the AAPH radical, which is capable of promoting the oxidation of these membranes, forming lipid hydroperoxides. These hydroperoxides promote the oxidation of Fe^2+ to Fe^3+, which reacts with xylenol orange, forming a yellowish compound. The active ingredients incubated with the liposomes decrease the membrane oxidation, consequently decreasing the reaction with xylenol orange and the formation of color. This test provides a result for the % protection against lipoperoxidation, and is closer to the physiological situation, since it mimics the attack to cell membranes. • Protein Oxidation: this experiment uses BSA (bovine serum albumine) as a substrate and a hydroxyl radical generating system (Fenton reaction: H2O2+ iron), which can generate hydroperoxides in the presence of the protein, due to the oxidation of the amino acid side chain. These hydroperoxides promote the oxidation of Fe2+ to Fe3+, which reacts with xylenol orange, forming a yellowish compound. […]
smiles,measurement,setting,value
Cc1c(C)c2c(c(C)c1O)CCC(C)(C(=O)O)O2 (centres unmarked) [Trolox®],antioxidant activity of comparator,[1],400 µmol/g
CC(C)=CCC/C(C)=C/C=C/C(C)=C/C=C/C(C)=C/C=C/C=C(C)/C=C/C=C(C)/C=C/C=C(\C)CCC=C(C)C [Lycopene],IC-50 (mg/ml),[2],0.208 mg/mL
same,IC-50 (μg/ml),[2],208 µg/mL
same,protection against lipoperoxidation,[3],25.30%
"Cc1c(C)c2c(c(C)c1O)CC[C@@](C)(CCC[C@H](C)CCC[C@H](C)CCCC(C)C)O2 [Tocopherol, alpha-tocopherol]",IC-50 (mg/ml),[2],0.019 mg/mL
same,IC-50 (μg/ml),[2],19 µg/mL
same,protection against lipoperoxidation,[3],95.53%
same,"concentration of the active ingredient in isolation required for protection similar to the mixture, relative to its concentration in the mixture","[3]; lipoperoxidation, between 60 and 70% protection, mixture 10+10+10 μg/ml",at least 5 times higher
